The values below come from US11813230B2, “Composition for strengthening skin barrier, moisturizing skin or anti-aging” (COSMAX, INC., priority 2020, dated 2023).

Holding throughout (conditions): 37° C., 48 up to 72 hours, well color change
One assay relates to S. mitis (CX-8). In words: Substance utilization (BioLOG GP2 / API 50). The format is cell-based, Streptococcus mitis. As to the method:
(§1) To analyze substance utilization by the isolated strains (Streptococcus pneumoniae, Streptococcus infantis, and Streptococcus mitis), tests were conducted in the following manner. BioLOG GP2 and API 50 were used in determining the substance utilization, and testing was performed using testing methods provided by Omnilog and Biomeriuse. The culturing temperature and media suitable to corresponding strains were selected, and 5 among cluster colonies incubated for 48 hours were taken and suspended in reagents before use. The inoculation amount was 150 μl. As the suspension, components of kits provided by various manufacturers were used. When the strains are yet to be inoculated, the suspension is in a transparent liquid phase. Inoculated plates and strips were incubated at 37° C. for 48 hours, and then the incubation of up to 72 hours was examined. Wells were in a transparent liquid phase at the time of inoculating, but the colors of the wells changed to purple or red, and the color-changed wells were determined to be positive.

The subject of a further assay is S. pneumoniae (CX-2). The format is cell-based, Streptococcus pneumoniae. As to the method: as §1
The test system of the next assay is S. infantis (CX-4). In words: Substance utilization (BioLOG GP2 / API 50). It counts as cell-based, Streptococcus infantis. The method, then:
as §1

For `O=[Te]([O-])[O-].[K+].[K+]` [Potassium Tellurite], the “substance utilization by S. mitis (CX-8)” value in the assay with S. mitis (CX-8) was “+”. For the same compound, the “substance utilization by S. pneumoniae (CX-2)” value (“substance utilization … (CX-2)” below) in the assay with S. pneumoniae (CX-2) is listed as “+”. Moreover, in the assay with S. infantis (CX-4), the “substance utilization by S. infantis (CX-4)” value (“substance utilization … (CX-4)” below) was “+”.
As to Dextrin, in the assay with S. mitis (CX-8), the “substance utilization by S. mitis (CX-8)” value is reported as “+”. Moreover, the “substance utilization … (CX-2)” value with S. pneumoniae (CX-2) was “+”. The “substance utilization … (CX-4)” value with S. infantis (CX-4) was “+”.
For the compound `OC[C@H]1O[C@H](OCC2O[C@@H](O)[C@H](O)[C@@H](O)[C@@H]2O)[C@H](O)[C@@H](O)[C@H]1O` (stereo partly drawn) [D-Melibiose], in the assay on S. pneumoniae (CX-2), the “substance utilization … (CX-2)” value is “+”.
On to Tween 40, for which, in the assay with S. pneumoniae (CX-2), the “substance utilization … (CX-2)” value is recorded as “+”. Besides, the “substance utilization … (CX-4)” value in the assay with S. infantis (CX-4) is reported as “+”.
Regarding D-Salicin, in the assay on S. mitis (CX-8), the “substance utilization by S. mitis (CX-8)” value was “+”.
For `[Cl-].[Na+]` [1% NaCl, NaCl], the “substance utilization by S. mitis (CX-8)” value in the assay with S. mitis (CX-8) is reported as “+”. Also, the “substance utilization … (CX-2)” value in the assay with S. pneumoniae (CX-2) was “+”. In addition, the “substance utilization … (CX-4)” value in the assay with S. infantis (CX-4) is listed as “+”.
Take `OC[C@H]1O[C@@H](O[C@H]2[C@H](O)[C@@H](O)[C@H](O)O[C@@H]2CO)[C@H](O)[C@@H](O)[C@@H]1O` [D-Cellobiose]: the “substance utilization by S. mitis (CX-8)” value with S. mitis (CX-8) is given as “+”. The “substance utilization … (CX-2)” value with S. pneumoniae (CX-2) is “+”. The “substance utilization … (CX-4)” value with S. infantis (CX-4) was “+”.
As for `CO[C@H]1/C=C/O[C@@]2(C)Oc3c(C)c([O-])c4c(O)c(cc(O)c4c3C2=O)NC(=O)/C(C)=C\C=C\[C@H](C)[C@H](O)[C@@H](C)[C@@H](O)[C@@H](C)[C@H](OC(C)=O)[C@@H]1C.[Na+]` [Rifamycin SV], the “substance utilization by S. mitis (CX-8)” value in the assay with S. mitis (CX-8) was “+”. Also, the “substance utilization … (CX-4)” value with S. infantis (CX-4) is “+”.
Regarding `OC[C@H]1O[C@H](OC[C@H]2O[C@H](OC[C@H]3O[C@H](O[C@]4(CO)O[C@H](CO)[C@@H](O)[C@@H]4O)[C@H](O)[C@@H](O)[C@@H]3O)[C@H](O)[C@@H](O)[C@H]2O)[C@H](O)[C@@H](O)[C@H]1O` [Stachyose], the “substance utilization by S. mitis (CX-8)” value in the assay with S. mitis (CX-8) is “+”. For the same compound, the “substance utilization … (CX-2)” value in the assay with S. pneumoniae (CX-2) was “+”. In the assay with S. infantis (CX-4), the “substance utilization … (CX-4)” value is “+”.
As to `COc1cc(-c2ccc(-n3nc(-c4ccccc4)n[n+]3-c3ccccc3)c(OC)c2)ccc1-n1nc(-c2ccccc2)n[n+]1-c1ccccc1.[Cl-].[Cl-]` [Tetrazolium Blue], the “substance utilization by S. mitis (CX-8)” value in the assay with S. mitis (CX-8) is given as “+”. Further, the “substance utilization … (CX-4)” value with S. infantis (CX-4) is on record as “+”.
With D-Turanose, the “substance utilization … (CX-2)” value in the assay on S. pneumoniae (CX-2) is given as “+”.
Regarding Pectin, the “substance utilization by S. mitis (CX-8)” value in the assay on S. mitis (CX-8) was “+”. Further, the “substance utilization … (CX-2)” value with S. pneumoniae (CX-2) is on record as “+”. For the same compound, in the assay on S. infantis (CX-4), the “substance utilization … (CX-4)” value is given as “+”.
Regarding `OC[C@H]1O[C@H](O[C@H]2[C@H](O)[C@@H](O)[C@H](O)O[C@@H]2CO)[C@H](O)[C@@H](O)[C@@H]1O` [D-maltose], in the assay with S. mitis (CX-8), the “substance utilization by S. mitis (CX-8)” value was “+”. Moreover, the “substance utilization … (CX-2)” value with S. pneumoniae (CX-2) is given as “+”. Also, the “substance utilization … (CX-4)” value in the assay on S. infantis (CX-4) is “+”.
For the compound `O=C1O[C@H]([C@@H](O)CO)[C@@H](O)[C@@H]1O` [L-Galactonic Acid Lactone], in the assay on S. mitis (CX-8), the “substance utilization by S. mitis (CX-8)” value is reported as “+”.
As for `OC[C@H]1O[C@H](OC[C@H]2O[C@H](O[C@]3(CO)O[C@H](CO)[C@@H](O)[C@@H]3O)[C@H](O)[C@@H](O)[C@@H]2O)[C@H](O)[C@@H](O)[C@H]1O` [D-Raffinose], the “substance utilization … (CX-2)” value with S. pneumoniae (CX-2) is given as “+”.
Turning to `[Cl-].[Li+]` [Lithium Chloride], the “substance utilization by S. mitis (CX-8)” value in the assay with S. mitis (CX-8) is on record as “+”.
In the case of `CC(O)C(=O)[O-].[Na+]` (stereo not shown) [1% Sodium Lactate, Sodium Lactate], in the assay on S. mitis (CX-8), the “substance utilization by S. mitis (CX-8)” value was “+”. In the assay on S. pneumoniae (CX-2), the “substance utilization … (CX-2)” value is recorded as “+”. In addition, the “substance utilization … (CX-4)” value in the assay on S. infantis (CX-4) is recorded as “+”.
In the case of `O=P(O)(O)OC[C@H]1OC(O)(CO)[C@@H](O)[C@@H]1O` (stereo partly drawn) [D-Fructose-6-Po4], the “substance utilization by S. mitis (CX-8)” value with S. mitis (CX-8) was “+”.
